`OCc1ccc(CO)cc1` [1,4-benzenedimethanol] showed a melting point of 119 °C. With `NC(=S)C1COc2ccccc2O1` (stereo not given) [1,4-benzodioxane-2-thiocarboxamide] the melting point was 174 °C. In the case of `Cc1ccc(S(=O)(=O)OC[C@@H]2OC(C)(C)O[C@H]2COS(=O)(=O)c2ccc(C)cc2)cc1` [1,4-di-o-tosyl-2,3-o-isopropylidene-l-threitol], the melting point was 90 °C. `O=[N+]([O-])c1cc(Br)ccc1Br` [1,4-dibromo-2-nitrobenzene] showed a melting point of 84 °C. Compound `Brc1ccc(Br)cc1` [1,4-dibromobenzene] has a melting point of 88 °C. `BrCCCCBr` [1,4-dibromobutane] showed a melting point of -20 °C. `Clc1ccc(Cl)c(I)c1` [1,4-dichloro-2-iodobenzene] gave a melting point of 21 °C. In the case of `Clc1ccc(Cl)cc1` [1,4-dichlorobenzene], the melting point was 54 °C. Compound `CCc1ccc(CC)cc1` [1,4-diethylbenzene] has a melting point of -43 °C. `Ic1ccc(I)cc1` [1,4-diiodobenzene] gave a melting point of 131 °C. In the case of `ICCCCI` [1,4-diiodobutane], the melting point was 6 °C. In the case of `Nc1ccc(N)cc1` [1,4-phenylenediamine], the melting point was 142 °C. For `OC1COC2C(O)COC12` (stereo not given) [1,4:3,6-dianhydrohexitol], the melting point was 61 °C. In the case of `Cc1cc(=O)n(-c2ccccc2)n1C` [1,5-Dimethyl-2-phenyl-1,2-dihydro-3H-pyrazol-3-one], the melting point was 110 °C. In the case of `Nc1cccc2c(N)cccc12` [1,5-Naphthalenediamine], the melting point was 158 °C. Compound `CC(C)CCCC(C)C1CCC2C3CCC45CCC(=O)C4C5(C)C3CCC12C` (stereo not given) [1,5-cyclocholestan-2-one] has a melting point of 164 °C. `C1=CCCC=CCC1` [1,5-cyclooctadiene] showed a melting point of -69 °C. With `C=CCCC=C` [1,5-hexadiene] the melting point was -141 °C. `C1CCc2nnnn2CC1` [1,5-pentamethylene-1h-tetrazole] showed a melting point of 60 °C. `NCCCCCCN` [1,6-diaminohexane] showed a melting point of 41 °C. In the case of `N#CCCCCCCC#N` [1,6-dicyanohexane], the melting point was -3 °C. Compound `COc1ccc2c(OC)cccc2c1` [1,6-dimethoxynaphthalene] has a melting point of 59 °C. In the case of `O=[N+]([O-])c1ccc2c(c1)-c1cccc([N+](=O)[O-])c1C2` [1,6-dinitro-9H-fluorene], the melting point was 286 °C. Compound `OCCCCCCO` [1,6-hexanediol] has a melting point of 45 °C. Compound `O=C1c2c(O)ccc([N+](=O)[O-])c2C(=O)c2c([N+](=O)[O-])ccc(O)c21` [1,8-Dihydroxy-4,5-dinitro-9,10-anthraquinone] has a melting point of 225 °C. `O=C1c2c(O)cccc2Cc2cccc(O)c21` [1,8-Dihydroxyanthracen-9(10H)-one] gave a melting point of 181 °C. Compound `OCCCCCCCCCO` [1,9-nonanediol] has a melting point of 47 °C. `OCCCCCCCCCCCCO` [1,12-dodecanediol] gave a melting point of 83 °C. Compound `O=C(O)CCCCCCCCCCCCCCCCCCC(=O)O` [1,18-octadecanedicarboxylic acid] has a melting point of 127 °C. With `COc1ccc(C(=O)Cc2ccccc2)cc1OC` [1-(3,4-Dimethoxyphenyl)-2-phenylethanone] the melting point was 73 °C. Work on `Nc1cccc(-n2ccccc2=O)c1` [1-(3-Aminophenyl)pyridin-2(1H)-one] yielded a melting point of 183 °C. For `Fc1ccc(N2CCNCC2)cc1` [1-(4-fluorophenyl)piperazine], the melting point was 32 °C. Work on `c1cc(N2CCNCC2)ccn1` [1-(4-pyridyl)piperazine] yielded a melting point of 139 °C. `NCc1cccc2c(Br)cccc12` [1-(5-bromonaphthalen-1-yl)methanamine] gave a melting point of 139 °C. For `CS(=O)(=O)n1ccnc1` [1-(methylsulfonyl)imidazole], the melting point was 89 °C. `CCC(C(=O)NC(=O)NC(C)=O)c1ccccc1` (stereo not given) [1-Acetyl-3-(2-phenylbutyryl)urea] gave a melting point of 100 °C. For `CC(O)CN` (stereo not given) [1-Aminopropan-2-ol], the melting point was -2 °C. `O=[N+]([O-])c1cccc(Cl)c1` [1-Chloro-3-nitrobenzene] showed a melting point of 45 °C. `Clc1cccc2ccccc12` [1-Chloronaphthalene] showed a melting point of -21.5 °C. Work on `CCOCCOCCOCC` [1-Ethoxy-2-(2-ethoxyethoxy)ethane] yielded a melting point of -44 °C.
